Laboratory results reported in PubChem BioAssay AID1959 (Broad Institute, 2009).
Activity calls are given as the source filed them.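 The calls were made as follows: active = growth-inhibition EC50 no more than tenfold above the top tested dose; inconclusive = flat fit between 30% and 70% inhibition, or unreliable fit; inactive = EC50 more than tenfold above the top tested dose.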

Each molecule was assayed on E. coli NEB5alpha growth, BacTiter-Glo luminescence, 4 h (assay: antibacterial activity against E. coli NEB5alpha – luminescence, counter-screen for MEX-5/POS-1 RNA-binding inhibitor project, dose response (AID 1959);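 also: pUC19-transformed ampicillin-resistant cells grown in LB with ampicillin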).
In the case of `COCCCNC(CC(=O)Nc1cc(C)cc(C)c1)C(=O)O` (stereo not drawn), the EC50 is reported as > 11 µM (inactive). In the case of `CN(C)/C=C/C(=O)c1cnc(-c2ccccc2Cl)s1`, the EC50 is reported as > 11 µM (inactive). In the case of `CCNC(=O)c1cc2c(=O)n3cccc(C)c3nc2n(Cc2ccc(C)cc2)c1=N`, the EC50 is reported as > 11 µM (inactive). With `CSc1nncc(/C(C)=N\Nc2ccccc2)n1` the EC50 was > 11 µM (inactive). `Cc1nc(S/C(=C/c2ccc(-c3cc(Cl)ccc3C)o2)C(=O)O)n[nH]1` was tested, and the EC50 was > 11 µM (inactive). For `Cc1ccc(N2C(=O)c3cccc4c(N5CCN(C)CC5)ccc(c34)C2=O)c2cccnc12`, the EC50 was > 11 µM (inactive). `COC(=O)C1CSc2[nH]c(=O)sc2C1c1ccccc1` (stereo not drawn) was tested, and the EC50 was > 11 µM (inactive). In the case of `COc1ccc2c(c1)S/C(=C\C(=O)c1ccncc1)N2C`, the EC50 is reported as > 11 µM (inactive). With `O=c1oc2ccc(Cl)cc2nc1/C=C(\O)c1ccco1` the EC50 was > 11 µM (inactive). With `C=CCNC(=S)Nc1cc(Cl)ccc1OC` the EC50 was > 11 µM (inactive). With `O=C(O)c1cccc(-n2cccc2/C=N/O)c1` the EC50 was > 11 µM (inactive). For `CC(C)c1ccc(/C=C(\NC(=O)c2ccccc2)C(=O)NCCN2CCOCC2)cc1`, the EC50 was > 11 µM (inactive). With `CC(=O)Nc1cccc(Oc2nc(-c3ccccn3)nc3ccccc23)c1` the EC50 was > 11 µM (inactive). With `CN(C)c1cc(-c2ccc([N+](=O)[O-])cc2)oc(=O)c1Cl` the EC50 was > 11 µM (inactive). In the case of `O=C(Nc1ccccc1)NC1(C(=O)NCc2ccc3c(c2)OCO3)CCCCC1`, the EC50 is reported as > 11 µM (inactive). For `CCCn1c(N)c(N(CCOC)C(=O)Cc2ccc(S(=O)(=O)N3CCOCC3)s2)c(=O)[nH]c1=O`, the EC50 was > 11 µM (inactive). `O=C1N=C(N2CCOCC2)S/C1=C\c1ccc(-c2ccccc2Cl)o1` was tested, and the EC50 was > 11 µM (inactive). `Cc1nc(N=Nc2ccc(O)cc2)n[nH]1` was tested, and the EC50 was > 11 µM (inactive). For `CC1(O)C(=O)C=C2C=C(C3CC3)OC=C2C1=O` (stereo not drawn), the EC50 was > 11 µM (inactive). `COc1cc(C2C(C#N)=C(N)OC3=C2C(=O)CC(C)(C)C3)c([N+](=O)[O-])cc1OC` (stereo not drawn) was tested, and the EC50 was > 11 µM (inactive). `COc1cccc(CN2C(=O)C3(C(C#N)=C(N)OC4=C3C(=O)CCC4)c3ccccc32)c1` (stereo not drawn) was tested, and the EC50 was > 11 µM (inactive). `O=C1NC(=S)N(c2ccccc2)C(=O)/C1=C/c1ccco1` was tested, and the EC50 was > 11 µM (inactive). In the case of `O=C1c2cccc3c(O)ccc(c23)C(=O)N1Cc1ccccc1`, the EC50 is reported as > 11 µM (inactive). With `COc1ccc(/C=C2\CCCC(C(=O)C(F)(F)F)=C2O)cc1` the EC50 was > 11 µM (inactive). With `Cc1cc(/C=N/Nc2ccc([N+](=O)[O-])cn2)c(C)n1-c1ccc(C(=O)O)cc1` the EC50 was > 11 µM (inactive). For `COc1ccc2nc3cc(Cl)ccc3c(Nc3cc(CN4CCCC4)c(O)c(CN4CCCC4)c3)c2n1`, the EC50 was > 11 µM (inactive). With `Cc1cccc(N2C(=O)/C(=C/c3ccc(CN(CCC#N)S(C)(=O)=O)o3)C(=O)NC2=S)c1` the EC50 was > 11 µM (inactive). In the case of `CCc1ccccc1N1C(=O)NC(=O)/C(=C\c2cc(C)n(C)c2C)C1=O`, the EC50 is reported as > 11 µM (inactive). In the case of `Cc1ccc(S(=O)(=O)c2cc3c(=O)n4ccccc4nc3n(CCc3ccccc3)c2=N)cc1`, the EC50 is reported as > 11 µM (inactive). With `O=C1c2cccc3c(O)ccc(c23)C(=O)N1c1ccc(Cl)cc1` the EC50 was > 11 µM (inactive). `CC(=O)C1=C(c2ccccc2)N(C(C)=O)n2c(C)nnc2S1` was tested, and the EC50 was > 11 µM (inactive). For `CC(/C=C1\N=C(SCc2ccccc2Cl)SC1=O)=C\c1ccccc1`, the EC50 was > 11 µM (inactive). In the case of `COc1ccc(C(=O)Nc2nnc(CC(=O)N/N=C/c3ccc(O)cc3O)s2)cc1`, the EC50 is reported as > 11 µM (inactive). `Cc1ccc(NC(=O)CN2C(=O)S/C(=C\c3cc(C)n(-c4cccc(C(=O)O)c4)c3C)C2=O)cc1` was tested, and the EC50 was > 11 µM (inactive). `CCCn1c(O)c(CN2CCCC(C)C2)c(C)c(C#N)c1=O` (stereo not drawn) was tested, and the EC50 was > 11 µM (inactive). For `CCOC(=O)/C=c1\s/c(=C\c2ccc3cc(OC)ccc3c2)c(=O)n1CC(=O)NCC1CCCO1` (stereo not drawn), the EC50 was > 11 µM (inactive). In the case of `CSc1nsc2nc(=O)c(/C=C3\C=Nc4ccccc43)c(N)n12`, the EC50 is reported as > 11 µM (inactive). `CCC(=NCCCN(C)C)c1c(O)n(-c2ccc(OC)cc2)c(=O)[nH]c1=O` was tested, and the EC50 was > 11 µM (inactive).
